{"source": "patent US8461176B2", "about": "“Enantiomerically enriched aryloazol-2-yl cyanoethylamino compounds, method of making and method of using thereof” (Merial Limited, priority 2008, dated 2013)", "test_system": "Haemonchus contortus", "assay": "Method A: screening of activity against Haemonchus contortus L1 larvae in microtitre plate (development to L3 / motility)", "conditions": "Haemonchus contortus, 96 h, 4 days assessment; for inhibition at 0.04 ppm: test concentration 0.04 ppm; for inhibition at 0.01 ppm: test concentration 0.01 ppm; for inhibition at 0.6 ppm: test concentration 0.6 ppm; for inhibition at 0.15 ppm: test concentration 0.15 ppm; for inhibition at 0.0025 ppm: test concentration 0.0025 ppm", "description": "Method A: Screening Method to Test Activity of Compounds Against Haemonchus contortus."}
{"smiles": "CC(C#N)(Cn1nc2c(Cl)cc(Cl)c(Cl)c2n1)NC(=O)c1ccc(I)cc1", "note": "(centres unmarked) [Compound 1.100, N-[1-Cyano-1-methyl-2-(4,5,7-trichloro-2H-benzotriazol-2-yl)-ethyl]-4-iodobenzamide]", "values": [{"measurement": "inhibition at 0.04 ppm", "value": "≥ 90", "unit": "%"}]}
{"smiles": "COc1nc2cn(CC(C)(C#N)NC(=O)c3ccc(OC(F)(F)F)cc3)nc2cc1Br", "note": "(centres unmarked) [Compound 3.052, N-[2-(6-Bromo-5-methoxy-2H-pyrazolo[4,3-b]pyridin-2-yl)-1-cyano-1-methylethyl]-4-trifluoromethoxybenzamide]", "values": [{"measurement": "inhibition at 0.01 ppm", "value": "≥ 90", "unit": "%"}]}
{"smiles": "CC(C#N)(Cn1cc2c(Cl)cc(Cl)c(Cl)c2n1)NC(=O)c1ccc([N+](=O)[O-])cc1", "note": "(centres unmarked) [Compound 2.069, N-[1-Cyano-1-methyl-2-(4,6,7-trichloro-2H-indazol-2-yl)ethyl]-4-nitrobenzamide]", "values": [{"measurement": "inhibition at 0.01 ppm", "value": "≥ 90", "unit": "%"}]}
{"smiles": "CC(C#N)(Cn1nc2cc(Cl)c(Cl)cc2n1)NC(=O)c1ccc(OC(F)(F)F)cc1", "note": "(centres unmarked) [Compound 1.010, N-[1-Cyano-2-(5,6-dichloro-2H-benzotriazol-2-yl)-1-methylethyl]-4-trifluoromethoxybenzamide]", "values": [{"measurement": "inhibition at 0.6 ppm", "value": "≥ 90", "unit": "%"}]}
{"smiles": "CC(C#N)(Cn1cc2ncc(Br)cc2n1)NC(=O)c1ccc(I)cc1", "note": "(centres unmarked) [Compound 3.049, N-[2-(6-Bromo-2H-pyrazolo[4,3-b]pyridin-2-yl)-1-cyano-1-methylethyl]-4-iodobenzamide]", "values": [{"measurement": "inhibition at 0.04 ppm", "value": "≥ 90", "unit": "%"}]}
{"smiles": "CC(C#N)(Cn1nc2c(Cl)cc(Cl)c(Cl)c2n1)NC(=O)c1ccc(C(F)(F)F)c(F)c1", "note": "(centres unmarked) [Compound 1.146, N-[1-Cyano-1-methyl-2-(4,5,7-trichloro-2H-benzotriazol-2-yl)-ethyl]-3-fluoro-4-trifluoromethylbenzamide]", "values": [{"measurement": "inhibition at 0.15 ppm", "value": "≥ 90", "unit": "%"}]}
{"smiles": "CC(C#N)(Cn1nc2c(Cl)cc(Cl)c(Cl)c2n1)NC(=O)c1ccc(C(F)(F)F)cc1", "note": "(centres unmarked) [Compound 1.101, N-[1-Cyano-1-methyl-2-(4,5,7-trichloro-2H-benzotriazol-2-yl)-ethyl]-4-trifluoromethylbenzamide]", "values": [{"measurement": "inhibition at 0.0025 ppm", "value": "≥ 90", "unit": "%"}]}
{"smiles": "CCOc1c2ccc(Cl)cc2nn1CC(C)(C#N)NC(=O)c1ccc(OC(F)(F)F)cc1", "note": "(centres unmarked) [Compound 2.027, N-[2-(6-Chloro-3-ethoxy-2H-indazol-2-yl)-1-cyano-1-methylethyl]-4-trifluoromethoxybenzamide]", "values": [{"measurement": "inhibition at 0.15 ppm", "value": "≥ 90", "unit": "%"}]}
{"smiles": "CC(C#N)(Cn1nc2c(Cl)cc(Cl)c(Cl)c2n1)NC(=O)c1ccc(OC(F)(F)F)cc1", "note": "(single isomer, unassigned; (-)) [Compound 1.097, (−)-N-[1-Cyano-1-methyl-2-(4,5,7-trichloro-2H-benzotriazol-2-yl)-ethyl]-4-trifluoromethoxybenzamide]", "values": [{"measurement": "inhibition at 0.3 ppm", "setting": "test concentration 0.3 ppm", "value": "< 90", "unit": "%"}]}
{"smiles": "CC(C#N)(Cn1cc2cc(Br)cnc2n1)NC(=O)c1ccc(OC(F)(F)F)cc1", "note": "(centres unmarked) [Compound 5.001, N-[2-(5-Bromo-2H-pyrazolo[3,4-b]pyridin-2-yl)-1-cyano-1-methylethyl]-4-trifluoromethoxybenzamide]", "values": [{"measurement": "inhibition at 0.6 ppm", "value": "≥ 90", "unit": "%"}]}
{"smiles": "CC(C#N)(Cn1cc2ncc(Br)cc2n1)NC(=O)c1ccc(-c2ccccc2)cc1", "note": "(centres unmarked) [Compound 3.050, N-[2-(6-Bromo-2H-pyrazolo[4,3-b]pyridin-2-yl)-1-cyano-1-methylethyl]-biphenyl-4-carboxamide]", "values": [{"measurement": "inhibition at 0.15 ppm", "value": "≥ 90", "unit": "%"}]}
{"smiles": "CC(C#N)(Cn1cc2ccnc(Br)c2n1)NC(=O)c1ccc(OC(F)(F)F)cc1", "note": "(centres unmarked) [Compound 4.005, N-[2-(7-Bromo-2H-pyrazolo[3,4-c]pyridin-2-yl)-1-cyano-1-methylethyl]-4-trifluoromethoxybenzamide]", "values": [{"measurement": "inhibition at 0.6 ppm", "value": "≥ 90", "unit": "%"}]}
{"smiles": "CC(C#N)(Cn1nc2c(Br)cc(Cl)c(Br)c2n1)NC(=O)c1ccc(C#N)cc1", "note": "(centres unmarked) [Compound 1.098, N-[2-(5-Chloro-4,7-dibromo-2H-benzotriazol-2-yl)-1-cyano-1-methylethyl]-4-cyanobenzamide]", "values": [{"measurement": "inhibition at 0.01 ppm", "value": "≥ 90", "unit": "%"}]}
{"smiles": "CC(C#N)(Cn1cc2ncc(Br)cc2n1)NC(=O)c1ccc(Oc2ccccc2)cc1", "note": "(centres unmarked) [Compound 3.048, N-[2-(6-Bromo-2H-pyrazolo[4,3-b]pyridin-2-yl)-1-cyano-1-methylethyl]-4-phenoxybenzamide]", "values": [{"measurement": "inhibition at 0.01 ppm", "value": "≥ 90", "unit": "%"}]}
{"smiles": "CCCCOc1c2ccc(Cl)cc2nn1CC(C)(C#N)NC(=O)c1ccc(OC(F)(F)F)cc1", "note": "(centres unmarked) [Compound 2.031, N-[2-(6-Chloro-3-butoxy-2H-indazol-2-yl)-1-cyano-1-methylethyl]-4-trifluoromethoxybenzamide]", "values": [{"measurement": "inhibition at 0.6 ppm", "value": "≥ 90", "unit": "%"}]}
{"smiles": "CC(C#N)(Cn1cc2c(Cl)cc(Cl)c(Cl)c2n1)NC(=O)c1ccc(C(F)(F)F)c(F)c1", "note": "(centres unmarked) [Compound 2.190, N-[1-Cyano-1-methyl-2-(4,6,7-trichloro-2H-indazol-2-yl)ethyl]-3-fluoro-4-trifluoromethylbenzamide]", "values": [{"measurement": "inhibition at 0.01 ppm", "value": "≥ 90", "unit": "%"}]}
{"smiles": "CC(C#N)(Cn1cc2c(Cl)cc(Cl)c(Cl)c2n1)NC(=O)c1ccc(C(F)(F)F)cc1", "note": "(centres unmarked) [Compound 2.062, N-[1-Cyano-1-methyl-2-(4,6,7-trichloro-2H-indazol-2-yl)ethyl]-4-trifluoromethylbenzamide]", "values": [{"measurement": "inhibition at 0.0025 ppm", "value": "≥ 90", "unit": "%"}]}
{"smiles": "COc1c2ccccc2nn1CC(C)(C#N)NC(=O)c1ccc(OC(F)(F)F)cc1", "note": "(centres unmarked) [Compound 2.016, N-[1-Cyano-2-(3-methoxy-2H-indazol-2-yl)-1-methylethyl]-4-trifluoromethoxybenzamide]", "values": [{"measurement": "inhibition at 0.15 ppm", "value": "≥ 90", "unit": "%"}]}
{"smiles": "CC(C#N)(Cn1nc2c(Cl)cc(Cl)c(Cl)c2n1)NC(=O)c1ccc(OC(F)(F)C(F)F)cc1", "note": "(centres unmarked) [Compound 1.103, N-[1-Cyano-1-methyl-2-(4,5,7-trichloro-2H-benzotriazol-2-yl)-ethyl]-4-(1,1,2,2-tetrafluoroethoxy)benzamide]", "values": [{"measurement": "inhibition at 0.01 ppm", "value": "≥ 90", "unit": "%"}]}
{"smiles": "CC(C#N)(Cn1nc2c(Cl)cc(Cl)c(Cl)c2n1)NC(=O)c1ccc(C#N)cc1", "note": "(centres unmarked) [Compound 1.102, N-[1-Cyano-1-methyl-2-(4,5,7-trichloro-2H-benzotriazol-2-yl)-ethyl]-4-cyanobenzamide]", "values": [{"measurement": "inhibition at 0.04 ppm", "value": "≥ 90", "unit": "%"}]}
{"smiles": "CC(C#N)(Cn1cc2ncc(Br)cc2n1)NC(=O)c1ccc(C(F)(F)F)cc1", "note": "(centres unmarked) [Compound 3.047, N-[2-(6-Bromo-2H-pyrazolo[4,3-b]pyridin-2-yl)-1-cyano-1-methylethyl]-4-trifluoromethylbenzamide]", "values": [{"measurement": "inhibition at 0.04 ppm", "value": "≥ 90", "unit": "%"}]}
{"smiles": "CC(C#N)(Cn1cc2c(Cl)cc(Cl)c(Cl)c2n1)NC(=O)c1ccc(Cl)cc1", "note": "(centres unmarked) [Compound 2.061, N-[1-Cyano-1-methyl-2-(4,6,7-trichloro-2H-indazol-2-yl)ethyl]-4-chlorobenzamide]", "values": [{"measurement": "inhibition at 0.0025 ppm", "value": "≥ 90", "unit": "%"}]}
{"smiles": "CCCOc1c2ccc(Cl)cc2nn1CC(C)(C#N)NC(=O)c1ccc(OC(F)(F)F)cc1", "note": "(centres unmarked) [Compound 2.029, N-[2-(6-Chloro-3-propoxy-2H-indazol-2-yl)-1-cyano-1-methylethyl]-4-trifluoromethoxybenzamide]", "values": [{"measurement": "inhibition at 0.6 ppm", "value": "≥ 90", "unit": "%"}]}
{"smiles": "CC(C#N)(Cn1cc2c(Cl)cc(Cl)c(Cl)c2n1)NC(=O)c1ccc(I)cc1", "note": "(centres unmarked) [Compound 2.068, N-[1-Cyano-1-methyl-2-(4,6,7-trichloro-2H-indazol-2-yl)ethyl]-4-iodobenzamide]", "values": [{"measurement": "inhibition at 0.0025 ppm", "value": "≥ 90", "unit": "%"}]}
{"smiles": "COc1ccc(C(=O)NC(C)(C#N)Cn2cc3c(Cl)cc(Cl)c(Cl)c3n2)cc1F", "note": "(centres unmarked) [Compound 2.227, N-[1-Cyano-1-methyl-2-(4,6,7-trichloro-2H-indazol-2-yl)ethyl]-3-fluoro-4-methoxybenzamide]", "values": [{"measurement": "inhibition at 0.15 ppm", "value": "≥ 90", "unit": "%"}]}
{"smiles": "CC(C#N)(Cn1cc2c(Cl)cc(Cl)c(Cl)c2n1)NC(=O)c1ccc(Cl)cc1Cl", "note": "(centres unmarked) [Compound 2.230, 2,4-Dichloro-N-[1-cyano-1-methyl-2-(4,6,7-trichloro-2H-indazol-2-yl)ethyl]benzamide]", "values": [{"measurement": "inhibition at 0.04 ppm", "value": "≥ 90", "unit": "%"}]}
{"smiles": "CC(C#N)(Cn1cc2c(Cl)cc(Cl)c(Cl)c2n1)NC(=O)c1ccc(OC(F)(F)C(F)F)cc1", "note": "(centres unmarked) [Compound 2.066, N-[1-Cyano-1-methyl-2-(4,6,7-trichloro-2H-indazol-2-yl)ethyl]-4-(1,1,2,2-tetrafluoroethoxy)benzamide]", "values": [{"measurement": "inhibition at 0.0025 ppm", "value": "≥ 90", "unit": "%"}]}
{"smiles": "C=Cc1cc(Cl)cc2nn(CC(C)(C#N)NC(=O)c3ccc(OC(F)(F)F)cc3)nc12", "note": "(centres unmarked) [Compound 1.075, N-[2-(6-Chloro-4-vinyl-2H-benzotriazol-2-yl)-1-cyano-1-methylethyl]-4-trifluoromethoxybenzamide]", "values": [{"measurement": "inhibition at 0.15 ppm", "value": "≥ 90", "unit": "%"}]}
{"smiles": "CC(C#N)(Cn1cc2ncc(Br)cc2n1)NC(=O)c1ccc(OC(F)(F)F)cc1F", "note": "(centres unmarked) [Compound 3.056, N-[2-(6-Bromo-2H-pyrazolo[4,3-b]pyridin-2-yl)-1-cyano-1-methylethyl]-2-fluoro-4-trifluoromethoxybenzamide]", "values": [{"measurement": "inhibition at 0.04 ppm", "value": "≥ 90", "unit": "%"}]}
{"smiles": "CC(C#N)(Cn1cc2c(Cl)cc(Cl)c(Cl)c2n1)NC(=O)c1ccc(C#N)cc1", "note": "(centres unmarked) [Compound 2.063, N-[1-Cyano-1-methyl-2-(4,6,7-trichloro-2H-indazol-2-yl)ethyl]-4-cyanobenzamide]", "values": [{"measurement": "inhibition at 0.0025 ppm", "value": "≥ 90", "unit": "%"}]}
{"smiles": "CC(C#N)(Cn1nc2cc(Cl)cnc2c1Br)NC(=O)c1ccc(OC(F)(F)F)cc1", "note": "(centres unmarked) [Compound 3.019, N-[2-(3-Bromo-6-chloro-2H-pyrazolo[4,3-b]pyridin-2-yl)-1-cyano-1-methylethyl]-4-trifluoromethoxybenzamide]", "values": [{"measurement": "inhibition at 0.01 ppm", "value": "≥ 90", "unit": "%"}]}
{"smiles": "CC(C#N)(Cn1nc2c(Br)cc(Cl)c(Br)c2n1)NC(=O)c1ccc(OC(F)(F)C(F)F)cc1", "note": "(centres unmarked) [Compound 1.099, N-[2-(5-Chloro-4,7-dibromo-2H-benzotriazol-2-yl)-1-cyano-1-methylethyl]-4-(1,1,2,2-tetrafluoroethoxy)benzamide]", "values": [{"measurement": "inhibition at 0.01 ppm", "value": "≥ 90", "unit": "%"}]}
{"smiles": "CC(C#N)(Cn1cc2c(Cl)cc(Cl)c(Cl)c2n1)NC(=O)c1cccc(Br)c1", "note": "(centres unmarked) [Compound 2.229, 3-Bromo-N-[1-cyano-1-methyl-2-(4,6,7-trichloro-2H-indazol-2-yl)ethyl]benzamide]", "values": [{"measurement": "inhibition at 0.15 ppm", "value": "≥ 90", "unit": "%"}]}
{"smiles": "CC(C#N)(Cn1cc2c(Cl)cc(Cl)c(Cl)c2n1)NC(=O)c1ccc(F)cc1F", "note": "(centres unmarked) [Compound 2.228, N-[1-Cyano-1-methyl-2-(4,6,7-trichloro-2H-indazol-2-yl)ethyl]-2,4-difluorobenzamide]", "values": [{"measurement": "inhibition at 0.04 ppm", "value": "≥ 90", "unit": "%"}]}
{"smiles": "CC(C#N)(Cn1cc2c(Cl)cc(Cl)c(Cl)c2n1)NC(=O)c1ccc(Oc2ccccc2)cc1", "note": "(centres unmarked) [Compound 2.067, N-[1-Cyano-1-methyl-2-(4,6,7-trichloro-2H-indazol-2-yl)ethyl]-4-phenoxybenzamide]", "values": [{"measurement": "inhibition at 0.04 ppm", "value": "≥ 90", "unit": "%"}]}
